The molecules below were run against IGF1R (Homo sapiens, UniProt P08069) (assay: Cellular IGF-1R assay: inhibition of IGF1R phosphorylation in transduced Hek293 cells, capture ELISA (MSD)).
Chain of IGF1R (P08069 31-1367): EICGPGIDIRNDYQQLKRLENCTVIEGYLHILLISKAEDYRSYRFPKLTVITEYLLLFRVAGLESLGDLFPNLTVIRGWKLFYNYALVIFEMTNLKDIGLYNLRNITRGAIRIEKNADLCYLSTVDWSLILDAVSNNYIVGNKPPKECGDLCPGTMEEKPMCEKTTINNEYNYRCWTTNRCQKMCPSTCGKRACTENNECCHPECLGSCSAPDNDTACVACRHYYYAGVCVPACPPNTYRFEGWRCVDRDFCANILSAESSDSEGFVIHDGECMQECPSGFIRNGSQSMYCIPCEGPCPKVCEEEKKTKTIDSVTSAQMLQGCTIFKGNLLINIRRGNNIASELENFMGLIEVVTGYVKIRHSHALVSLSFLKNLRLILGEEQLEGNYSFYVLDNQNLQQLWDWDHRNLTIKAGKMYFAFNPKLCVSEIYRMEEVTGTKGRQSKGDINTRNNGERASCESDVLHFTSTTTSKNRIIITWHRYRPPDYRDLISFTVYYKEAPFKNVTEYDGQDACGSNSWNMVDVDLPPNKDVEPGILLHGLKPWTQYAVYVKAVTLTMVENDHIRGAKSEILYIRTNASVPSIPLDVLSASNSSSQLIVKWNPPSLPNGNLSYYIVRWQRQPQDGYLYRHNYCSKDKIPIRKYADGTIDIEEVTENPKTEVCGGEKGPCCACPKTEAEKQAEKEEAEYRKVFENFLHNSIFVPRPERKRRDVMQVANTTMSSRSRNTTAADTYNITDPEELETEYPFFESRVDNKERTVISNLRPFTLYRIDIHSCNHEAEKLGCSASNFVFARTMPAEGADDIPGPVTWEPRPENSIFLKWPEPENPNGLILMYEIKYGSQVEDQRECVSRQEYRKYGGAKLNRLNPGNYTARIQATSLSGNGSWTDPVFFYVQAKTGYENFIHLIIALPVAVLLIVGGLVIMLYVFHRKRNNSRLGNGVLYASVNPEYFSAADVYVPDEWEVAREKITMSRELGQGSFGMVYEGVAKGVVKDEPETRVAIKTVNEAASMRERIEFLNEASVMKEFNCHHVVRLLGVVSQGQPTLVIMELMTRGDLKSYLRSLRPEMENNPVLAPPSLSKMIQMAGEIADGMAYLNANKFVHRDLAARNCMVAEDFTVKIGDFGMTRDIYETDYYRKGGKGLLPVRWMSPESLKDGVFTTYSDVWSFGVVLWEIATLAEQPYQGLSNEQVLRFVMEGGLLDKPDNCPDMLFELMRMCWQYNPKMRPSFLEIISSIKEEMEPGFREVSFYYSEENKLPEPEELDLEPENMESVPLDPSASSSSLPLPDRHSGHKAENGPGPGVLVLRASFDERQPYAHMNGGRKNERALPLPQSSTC
Type: cell-based
Design: Hek293 cells transduced with the corresponding receptors; expressed in transfected cells; host or cells: Hek293 (Hek293-IGF1R)
Protocol: In this assay the activity of the compounds of the invention against Insulin-like growth factor I (IGF-1) induced autophosphorylation of the IGF-IR is determined. The assay is conducted as follows: Compound-mediated inhibition of IGF1R and INSR phosphorylation in Hek293 cells transduced with the corresponding receptors is assessed in a capture ELISA format using the MSD (Meso Scale Discovery) platform. Briefly, 30′000 cells washed and diluted in starvation medium (DMEM high glucose supplemented with 0.1% BSA) are seeded in 90 μL per well into 96-well plates pre-coated with poly-D-lysine (0.1 mg/mL in PBS/0). After 24 h incubation at 37° C. and 5% CO2, dose-response effects are determined with 3-fold serial compound dilutions, starting at 10 μM. The final vehicle concentration is 0.1% DMSO in all wells. Following pre-incubation with compounds for 1 h, receptor phosphorylation is triggered by a 10 min exposure to 1.0 ng/μL IGF for Hek293-IGF1R cells, and 5.0 ng/μL insulin for Hek293-InsR cells. Cell lysis is achieved by addition of 80 μL MSD lysis buffer per aspirated well, incubation on ice for 20 min, and a freeze-thaw cycle. Target phosphorylation is then assessed by transferring volumes corresponding to approx. 6 μg Hek293-IGF1R or 0.6 μg Hek293-InsR lysates to MSD assay plates pre-coated with total-IGF1R or total-InsR Abs, respectively. After incubation for 2 h at rt, wells are exposed for 1 hr to a rabbit monoclonal antibody (CST #3024, 1:1000) detecting pIGF1R(Tyr1135/1136) as well as pINSR(Tyr1150/1151). Immune complexes are detected by a SULFO-Tag™-coupled anti-rabbit IgG antibody in the presence of 150 μL MSD read-buffer. Light emission at 620 nm triggered by application of electric current is recorded on a MSD SectorImager 6000. Acquired raw data (mean Ru-ECL units) are processed in an Excel analysis template. The plate blank (MSD lysis buffer) is subtracted from all data points. The effect of a particular test compound concentration on receptor phosphorylation is expressed relative to the window defined by ligand-stimulated vs unstimulated control cells (set as 100%). IC50 values [nM] are determined using 4-parametric curve-fitting (XLfit software, V4.3.2). Alternatively, the assay can be conducted with a slightly different format; Compound-mediated inhibition of IGF-1R and InsR phosphorylation in HEK293 cells overexpressing the corresponding receptors were assessed by quantitative Western blot using an Odyssey infrared imager as readout.
Compound-mediated inhibition of IGF1R and INSR phosphorylation in Hek293 cells transduced with the corresponding receptors is assessed in a capture ELISA format using the MSD (Meso Scale Discovery) platform. Briefly, 30′000 cells washed and diluted in starvation medium (DMEM high glucose supplemented with 0.1% BSA) are seeded in 90 μL per well into 96-well plates pre-coated with poly-D-lysine (0.1 mg/mL in PBS/O). After 24 h incubation at 37° C. and 5% CO2, dose-response effects are determined with 3-fold serial compound dilutions, starting at 10 μM. The final vehicle concentration is 0.1% DMSO in all wells. Following pre-incubation with compounds for 1 h, receptor phosphorylation is triggered by a 10 min exposure to 1.0 ng/μL IGF for Hek293-IGF1R cells, and 5.0 ng/μL insulin for Hek293-InsR cells. Cell lysis is achieved by addition of 80 μL MSD lysis buffer per aspirated well, incubation on ice for 20 min, and a freeze-thaw cycle. Target phosphorylation is then assessed by transferring volumes corresponding to approx. 6 μg Hek293-IGF1R or 0.6 μg Hek293-lnsR lysates to MSD assay plates pre-coated with total-IGF1R or total-lnsR Abs, respectively. After incubation for 2 h at rt, wells are exposed for 1 hr to a rabbit monoclonal antibody (CST #3024, 1:1000) detecting pIGF1R(Tyr1135/1136) as well as pINSR(Tyr1150/1151). Immune complexes are detected by a SULFO-Tag™-coupled anti-rabbit IgG antibody in the presence of 150 μL MSD read-buffer. […]
`Nc1ncnc2c1c(-c1ccc3c(c1)OC(c1ccccc1)=CC3)cn2[C@H]1C[C@@H](CN2CCS(=O)(=O)CC2)C1` [Example 20, 7-[cis-3-(1,1-Dioxo-1-thiomorpholin-4-ylmethyl)-cyclobutyl]-5-(2-phenyl-4H-chromen-7-yl)-7H-pyrrolo[2,3-d]pyrimidin-4-ylamine] gave an IC50 of 179 nM.
In the case of `Nc1ncnc2c1c(-c1ccc3c(c1)O[C@@H](c1ccccc1)CC3)cn2[C@H]1C[C@@H](CN2CCS(=O)(=O)CC2)C1` [Example 24, (R)-7-[cis-3-(1,1-Dioxo-thiomorpholin-4-ylmethyl)-cyclobutyl]-5-(2-phenyl-chroman-7-yl)-7H-pyrrolo[2,3-d]pyrimidin-4-ylamine], the IC50 is reported as 8 nM.
`Nc1ncnc2c1c(-c1ccc3c(c1)O[C@H](c1ccccc1)CC3)cn2[C@H]1C[C@@H](CN2CCS(=O)(=O)CC2)C1` [Example 25, (S)-7-[cis-3-(1,1-dioxo-thiomorpholin-4-ylmethyl)-cyclobutyl]-5-(2-phenyl-chroman-7-yl)-7H-pyrrolo[2,3-d]pyrimidin-4-ylamine] showed an IC50 of 9 nM.
For `Nc1ncnc2c1c(-c1ccc3c(c1)OC(c1ccccc1)CC3)cn2C1CC(CN2CCC(O)CC2)C1` (stereo not shown) [Example 37, 1-{3-[4-Amino-5-(2-phenyl-chroman-7-yl)-pyrrolo[2,3-d]pyrimidin-7-yl]-cyclobutylmethyl}-piperidin-4-ol], the IC50 was 46 nM.
Molecule `Nc1ncnc2c1c(-c1ccc3c(c1)OC(c1ccccc1)CC3)cn2[C@H]1C[C@@]2(COC(=O)O2)C1` (stereo partly shown) [Example 43, (E)-2-[4-Amino-5-(2-phenyl-chroman-7-yl)-pyrrolo[2,3-d]pyrimidin-7-yl]-5,7-dioxa-spiro[3.4]octan-6-one] has an IC50 of 76 nM.
Molecule `Nc1ncnc2c1c(-c1ccc3c(c1)OC(c1ccccc1)CC3)cn2[C@H]1C[C@@]2(CNC(=O)O2)C1` (stereo partly shown) [Example 44, (E)-2-[4-Amino-5-(2-phenyl-chroman-7-yl)-pyrrolo[2,3-d]pyrimidin-7-yl]-5-oxa-7-aza-spiro[3.4]octan-6-one] has an IC50 of 16 nM.
With `Nc1ncnc2c1c(-c1ccc3c(c1)OC(c1ccccc1)CC3)cn2[C@H]1C[C@@](O)(CN2CCS(=O)(=O)CC2)C1` (stereo partly shown) [Example 45, (E)-3-[4-Amino-5-(2-phenyl-chroman-7-yl)-pyrrolo[2,3-d]pyrimidin-7-yl]-1-(1,1-dioxothiomorpholin-4-ylmethyl)-cyclobutanol] the IC50 was < 5 nM.
With `CN1CCN(CC2CC(n3cc(-c4ccc5c(c4)OC(c4ccccc4)CC5)c4c(N)ncnc43)C2)CC1=O` (stereo not shown) [Example 46, 4-{3-[4-Amino-5-(2-phenyl-chroman-7-yl)-pyrrolo[2,3-d]pyrimidin-7-yl]-cyclobutylmethyl}-1-methyl-piperazin-2-one] the IC50 was 49 nM.
Molecule `Nc1ncnc2c1c(-c1ccc3c(c1)OC(c1ccccc1)CC3)cn2[C@H]1C[C@@](O)(Cn2cnnc2)C1` (stereo partly shown) [Example 47, (E)-3-[4-Amino-5-(2-phenyl-chroman-7-yl)-pyrrolo[2,3-d]pyrimidin-7-yl]-1-[1,2,4]triazol-4-ylmethylcyclobutanol] has an IC50 of 525 nM.
For `Nc1ncnc2c1c(-c1ccc3c(c1)OC1(CCCCC1)CC3)cn2[C@H]1C[C@@H](CN2CCS(=O)(=O)CC2)C1` [Example 53, 7-(cis-3-(1,1-dioxo-thiomorpholin-4-ylmethyl)cyclobutyl)-5-(spiro[chroman-2,1′-cyclohexane]-7-yl)-7H-pyrrolo[2,3-d]pyrimidin-4-amine], the IC50 was 202 nM.
For `Nc1ncnc2c1c(-c1ccc3c(c1)OC(c1ccccn1)CC3)cn2C1CC(CN2CC3CC2CS3(=O)=O)C1` [Example 62, 7-[cis-3-((S,S)-2,2-Dioxo-2λ6-thia-5-aza-bicyclo[2,2,1]kept-5-ylmethyl)-cyclobutyl]-5-(2-pyridin-2-yl-chroman-7-yl)-7H-pyrrolo[2,3-d]pyrimidin-4-ylamine], the IC50 was 69 nM.
“(R,S)—(Z)-3-[8-Amino-1-(2-phenyl-chroman-7-yl)-imidazo[1,5-a]pyrazin-3-yl]-1-hydroxymethyl-cyclobutanol and (R,S)-(E)-3-[8-amino-1-(2-phenyl-chroman-7-yl)-imidazo[1,5-a]pyrazin-3-yl]-1-hydroxymethyl-cyclobutanol [Example 5]” showed an IC50 of 100 nM.
“(R,S)—N-{cis-3-[4-Amino-5-(2-phenyl-chroman-7-yl)-pyrrolo[2,3-d]pyrimidin-7-yl]-cyclobutylmethyl}-methanesulfonamide [Example 17]” gave an IC50 of 24 nM.
